Measured values taken from PMC12214158, “Structure–activity relationship of ^18F-labeled PD-L1-targeting small molecule ligands: impact of radiolabeling strategy on affinity and in vivo performance” (EJNMMI Radiopharmacy and Chemistry, 2025).

Legend:
human PD-L1 = target: T1, human PD-L1 (Homo sapiens, UniProt Q9NZQ7); test: Competition binding assay against [^64Cu]Cu-1 on PC3 PD-L1 overexpressing cells; details: against [^64Cu]Cu-1 (30 nM), 14 dilutions 1 µM–120 pM, n = 2 from triplicates, read-out: Ki (inhibitory constant from competition binding assay)
T1 construct: expressed in transfected cells; host or cells: PC3 cells (human prostate carcinoma) transduced to overexpress human PD-L1
T1 sequence (Q9NZQ7 19-290): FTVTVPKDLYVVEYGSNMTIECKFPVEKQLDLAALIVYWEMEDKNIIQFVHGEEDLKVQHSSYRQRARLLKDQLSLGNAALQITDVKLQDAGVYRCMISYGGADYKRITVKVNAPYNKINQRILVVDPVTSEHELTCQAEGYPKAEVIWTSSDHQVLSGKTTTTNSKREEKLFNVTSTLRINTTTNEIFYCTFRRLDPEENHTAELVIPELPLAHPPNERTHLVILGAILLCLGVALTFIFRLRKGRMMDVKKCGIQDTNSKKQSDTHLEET
Method: Prior to competition binding experiments, cells were detached with 0.05% Trypsin–EDTA (Gibco, USA), trypsinized and counted (CASY1 cell counter, Schaerfe System, Reutlingen, Germany). Cells were then diluted in medium to ~ 320,000 cells/mL and seeded to 48 well plates (Falcon Multiwell #353078, ThermoFisher, Karlsruhe, Germany) for at least one day.
For the determination of inhibitory constant (Ki), competition binding experiments were conducted in a minimum of two independent experiments, with each data point formed from triplicates. For this purpose, all described compounds competed with a previously reported biphenyl-based PD-L1 small molecule radioligand (Krutzek et al. [2023b]).
Human PD-L1 transduced PC3 cells were grown under conditions described above. For the experiments, plates were allowed to reach room temperature followed by cooling on ice (each 15 min). 200 µL of assay buffer (PBS) replaced the culture. For each compound, total binding (TB) of the radioligand was determined, along with […] of BMS-1166 (synthesized according to reference (Guzik et al. [2017]) (dissolved in DMSO, resulting in 0.03% v/v) for estimation of nonspecific binding (NSB).
Incubation for 90 min followed, wells were then washed with ice-cold assay buffer (3 washes) and cells subjected to lysis (500 µL of 0.1 M NaOH + 1% SDS). The radioactivity of 400 µL lysate was assessed via a gamma counter (Perkin Elmer Wizard 1480). Binding to polystyrene was determined on an extra plate without any cells under identical conditions. Activity and therefore concentration of the radioligand stock solution was confirmed via 50 µL samples. Data was corrected for radioactive decay to a reference time (end of radiolabeling). The protein content of lysates from a control plate (seeded from the same cell suspension, incubated under identical conditions) was quantified using a BCA assay, and the mean value (µg/mL) was employed for this specific dataset. Via mean protein content and molar activity, final values (pmol/mg protein) were computed from the CPM measurements. Ki was fitted via a One site model (GraphPad Prism 10), using the previously determined KD for the radiolabeled compound and the actual concentration of the radioligand.

[1] = test system: NMRI-nude mice bearing PC3 PD-L1 and PC3 mock tumors; test: Small animal PET in mice bearing PC3 PD-L1 and PC3 mock tumors; format: in vivo; details: for SUVmax PC3 PD-L1 tumor / SUVmax PC3 mock tumor / Uptake (SUVmean) Bone (spine) / Uptake (SUVmean) Gall bladder / Uptake (SUVmean) Heart / Uptake (SUVmean) Liver / Uptake (SUVmean) PC3 PD-L1 tumor / Uptake (SUVmean) PC3 mock tumor / Uptake (SUVmean) Small intestine: 1–2 h p.i.; for Uptake (SUVmean) Bone (spine) / Uptake (SUVmean) Gall bladder / Uptake (SUVmean) Heart / Uptake (SUVmean) Liver / Uptake (SUVmean) PC3 PD-L1 tumor / Uptake (SUVmean) PC3 mock tumor / Uptake (SUVmean) Small intestine: mean; for transition from liver and gall bladder into the intestine: time-activity curves
Method: Male athymic NMRI-nude mice (Rj:NMRI-Foxn1nu, Charels River, Germany) aged 8 to 16 weeks were used to investigate pharmacokinetics and tumor uptake. For subcutaneous injection of cells, general anesthesia was induced with ~ 10% desflurane (Baxter, Deerfield, IL, USA) in 30 vol% oxygen + air at controlled 37 °C. Mice were injected with 3–5 × 10^6 PC3 PD-L1 and PC3 mock cells (in 50 µL PBS + 50 µL Matrigel, Corning, Glendale, CA, USA) into the right and left thigh, respectively. Tumor growth was monitored (3 times per week) using calipers, and animals enrolled in PET scans once tumors reached 7 mm.
Under general anesthesia, PET and X-ray computed tomography (CT) scans were conducted using a small animal PET/CT scanner (nanoScan PET/CT, Mediso, Budapest, Hungary), with four animals imaged simultaneously. CT images were used for attenuation correction and anatomical referencing.
The radiotracer candidates were diluted in 200–300 µL sterile 0.9% NaCl (and up to 2% EtOH, pH 6–7) and intravenously delivered over 30 s through a lateral tail vein catheter. PET acquisition (2 h p.i.) was started simultaneously with the administration. Injected activities were between 5 and 12 MBq (with molar activities 5–18 GBq/µmol). If animals were subjected to an additional scan later, the minimum time in between was > 3 days to allow decay and full metabolization.
The acquired three-dimensional list mode data were sorted and binned within a 400–600 keV energy window, forming 35 time frames (15 × 10 s, 5 × 30 s, 5 × 60 s, 4 × 300 s, 3 × 600 s, 3 × 1200 s). Reconstruction was performed with Mediso’s Tera-Tomo™ 3D algorithm, with a voxel size of 0.4 mm and corrections for decay, scatter, and attenuation. The images were subjected to post-processing and analysis using Rover software (ABX GmbH, Radeberg, Germany), and are shown as maximum intensity projections (MIPs) at the specified timepoint and scaling.
Three-dimensional volumes of interest were defined using fixed thresholding at 35–40% of the maximum measured intensity. Standardized uptake values (SUV = [MBq detected activity/mL tissue]/[MBq injected activity/g body weight], in mL/g) were then calculated within the selected volumes of interest, e.g. PD-L1 and mock tumors, as well as other relevant and metabolizing organs.

[2] = Proteolytic stability in human serum, radio-HPLC; format: in vitro ADME; details: 37 °C, all time points up to 4 h
Method: With both ^18F-ligands in hand, distribution coefficients (log D7.4) were determined using the shake flask method with n-octanol and PBS. The introduction of three hydrophilizing units led to log D7.4 values of − 2.54 ± 0.02 for [^18F]F-2 and − 2.68 ± 0.08 for [^18F]F-3, which indicates moderate hydrophilicity. Subsequently, proteolytic stability was investigated (Supplementary Fig. S68 and S69), by incubating in human serum at 37 °C for up to 4 h. Before incubation (0 h) and 0.5, 1, 2 and 4 h after incubation, an aliquot was taken, and serum proteins were precipitated. Analysis of radiotracers was performed with radio-HPLC, showing the intact radiotracers (0 h) at 7.0 ([^18F]F-2) and 7.7 min ([^18F]F-3). At all time points, radiotracers remained intact up to 99%.
Subsequently, proteolytic stability was investigated (Supplementary Fig. S70 and S71), by incubating in human serum at 37 °C for up to 4 h. Before incubation (0 h) and 0.5, 1, 2 and 4 h after incubation, an aliquot was taken, and serum proteins were precipitated. Analysis of radiotracers was performed with radio-HPLC, showing the intact radiotracers (0 h) at 7.9 (Al[^18F]F-36) and 8.1 min (Al[^18F]F-37). After 4 h, both radiotracers remained intact up to 91% and 92%, respectively.
For proteolytic stability studies, a solution of the radiolabeled compound was diluted with human serum in a ratio of 1:10. […]

PC3 PD-L1 cells = target: T2, PC3 PD-L1 cells (Homo sapiens, UniProt Q9NZQ7); test: Real-time radioligand binding (LigandTracer) to PC3 PD-L1 cells; details: room temperature
T2 construct: expressed in transfected cells; host or cells: PC3 cells (human prostate carcinoma) transduced to overexpress human PD-L1
T2 sequence (Q9NZQ7 19-290): as above
Method: The LigandTracer system (Ridgeview Instruments AB, Uppsala, Sweden) allows assessing the binding kinetics (association rate constant ka and dissociation rate constant kd) and therefore dissociation constant (KD) of radiolabeled compounds. For that purpose, target-positive PC3 PD-L1 cells are seeded to a quadrant of a petri dish (Thermo Scientific Nunclon Delta #150350). In our initial tests, 1.2x10^6 cells were seeded one day prior to the experiment.
The petri dish is then placed in the instrument, the culture medium removed and replaced with 3 mL CO2-independent medium (Gibco #18045088, ThermoFisher Germany). In the LigandTracer system, the dish rotates on an inclined base, with cells in medium (3 mL) located on one side (target), while no cells (background) are located on the other side. Radioactivity (counts per second) is then constantly measured for 30 seconds on either side. This allows continuous measurements of two (or more) alternating parts of the dish for bound radioactivity, with target – background indicating binding over time.
All experiments were performed at room temperature. Association of compounds was observed following incubation with two increasing concentrations of the tracer. The tracer-containing solution was then exchanged for fresh medium, to allow observation of dissociation for at least 120 min.

Structure (SMILES): Cc1c(COc2cc(OCc3cncc(S(C)(=O)=O)c3)c(CN(C)C(=O)[C@H](CS(=O)(=O)O)NC(=O)[C@H](CS(=O)(=O)O)NC(=O)CCP(=O)(O)O)cc2Cl)cccc1-c1cccc(OCc2cn([C@@H]3O[C@H](CF)[C@@H](O)[C@H](O)[C@H]3O)nn2)c1C [Compound 2, (R)−3-((5-Chloro-4-((3'-((1-((2R,3R,4S,5S,6S)−6-(fluoromethyl)−3,4,5-trihydroxytetrahydro-2H-pyran-2-yl)−1H-1,2,3-triazol-4-yl)methoxy)−2,2'-dimethyl-[1,1'-biphenyl]−3-yl)methoxy)−2-((5-(methylsulfonyl)pyridin-3-yl)methoxy)benzyl)(methyl)amino)−3-oxo-2-((R)−2-(3-phosphonopropanamido)−3-sulfopropanamido)propane-1-sulfonic acid]
- Ki (human PD-L1): 0.189 µM

Structure (SMILES): Cc1c(COc2cc(OCc3cncc(S(C)(=O)=O)c3)c(CN(C)C(=O)[C@H](CS(=O)(=O)O)NC(=O)[C@H](CS(=O)(=O)O)NC(=O)CCP(=O)(O)O)cc2Cl)cccc1-c1cccc(OCc2cn(CCOCCOCCF)nn2)c1C [Compound 3, (R)−3-((5-Chloro-4-((3'-((1-(2-(2-(2-fluoroethoxy)ethoxy)ethyl)−1H-1,2,3-triazol-4-yl)methoxy)−2,2'-dimethyl-[1,1'-biphenyl]−3-yl)methoxy)−2-((5-(methylsulfonyl)pyridin-3-yl)methoxy)benzyl)(methyl)amino)−3-oxo-2-((R)−2-(3-phosphonopropanamido)−3-sulfopropanamido)propane-1-sulfonic acid]
- Ki (human PD-L1): 0.475 µM

Structure (SMILES): Cc1c(COc2cc(OCc3cncc(S(C)(=O)=O)c3)c(CN(C)C(=O)[C@H](CS(=O)(=O)O)NC(=O)[C@H](CS(=O)(=O)O)NC(=O)CCP(=O)(O)O)cc2Cl)cccc1-c1cccc(OCc2cn([C@@H]3O[C@H](C[18F])[C@@H](O)[C@H](O)[C@H]3O)nn2)c1C [[^18F]F-2]
- bone uptake (sign of defluorination) [1]: lacked a discernible bone uptake
- excretion route [1]: exclusively excreted via the hepatobiliary route
- target-specific tumor uptake, PC3 PD-L1 versus PC3 mock [1]: marked absence of target-specific uptake
- SUVmax PC3 PD-L1 tumor [1]: 0.66
- SUVmax PC3 mock tumor [1]: 0.77
- Uptake (SUVmean) Bone (spine) [1]: 0.25
- Uptake (SUVmean) Gall bladder [1]: 46.45
- Uptake (SUVmean) Heart [1]: 0.86
- Uptake (SUVmean) Liver [1]: 1.61
- Uptake (SUVmean) PC3 PD-L1 tumor [1]: 0.34
- Uptake (SUVmean) PC3 mock tumor [1]: 0.39
- Uptake (SUVmean) Small intestine [1]: 114.55
- transition from liver and gall bladder into the intestine [1]: 10 to 15 min
- radiotracer remaining intact [2]: up to 99%
- Ki (human PD-L1): 0.189 µM

Structure (SMILES): Cc1c(COc2cc(OCc3cncc(S(C)(=O)=O)c3)c(CN(C)C(=O)[C@H](CS(=O)(=O)O)NC(=O)[C@H](CS(=O)(=O)O)NC(=O)CCP(=O)(O)O)cc2Cl)cccc1-c1cccc(OCc2cn(CCOCCOCC[18F])nn2)c1C [[^18F]F-3]
- bone uptake (sign of defluorination) [1]: lacked a discernible bone uptake
- excretion route [1]: exclusively excreted via the hepatobiliary route
- target-specific tumor uptake, PC3 PD-L1 versus PC3 mock [1]: marked absence of target-specific uptake
- SUVmax PC3 PD-L1 tumor [1]: 0.30
- SUVmax PC3 mock tumor [1]: 0.34
- Uptake (SUVmean) Bone (spine) [1]: 0.13
- Uptake (SUVmean) Gall bladder [1]: 150.54
- Uptake (SUVmean) Heart [1]: 0.20
- Uptake (SUVmean) Liver [1]: 0.70
- Uptake (SUVmean) PC3 PD-L1 tumor [1]: 0.17
- Uptake (SUVmean) PC3 mock tumor [1]: 0.17
- Uptake (SUVmean) Small intestine [1]: 105.54
- transition from liver and gall bladder into the intestine [1]: 10 to 15 min
- real-time radioligand binding, bound radioactivity over time (PC3 PD-L1 cells): almost no binding takes place and no
- radiotracer remaining intact [2]: up to 99%
- Ki (human PD-L1): 0.475 µM
